Patent publication US20090227619A1, “Harmine derivatives, intermediates used in their preparations, preparation processes and use therefo” (priority 2003, published 2009)
pIC50: −log10 of the molar value. Like-named read-outs stand apart in the source and are kept apart here. One block for each compound: values may come before it.

Experiments:
HepG2 = assay: In vitro cytotoxicity, IC50 by MTT method, HepG2; format: cell-based, human
Method: (§1) Culture medium powder RPMI1640 was dissolved in a proper amount of tri-distilled water according to the instruction of the product. […] It was the basic culture solution. The complete culture solution was added with FBS having a final concentration of 10%, 100 U/ml penicillin and 100 µg/ml streptomycin. The solution was fully stirred by a magnetic blender, and the pH of the solution was adjusted to 6.8-7.0. The volume was kept constant. After being filtered and disinfected, the solution was kept into several containers which were sealed and stored at 4° C.
(§2) The cells were placed in a culture dish followed by the addition of complete culture liquid RPMI1640 and then cultured in a incubator comprising 5% CO2 at 37° C. In the exponential growth phase, the cells grew vigorously. If the culture liquid became yellow, the liquid should be replaced instantly.
(§3) The cells, at a concentration of 10^5/ml, were inoculated at a 96-pore culture plate. In each pore, 100 μl cells were inoculated. The cells were placed in a CO2 incubator until the cells were in the logarithmic growth phase. The samples to be tested were added according to the preset concentration gradient. For each gradient, the test was conducted at least three times. An equivalent amount of solvent for dissolving the samples was added in the control group. After 48 h of culture, each pore was added 20 μl MTT (5 mg/ml). The cells were cultured at 37° C. for 4 h. After the supernatant was carefully removed, 100 μl DMSO was added in each pore. The plate was agitated for about 10 minutes such that the precipitates were dissolved. After that, OD value was identified with a Microplate Reader at the wavelength of 490 nm. The survival rate of the cells at various concentrations was calculated according to the following formula:
(§4) Survival rate %=average OD value of the sample group/average OD value of the control group×100%
(§5) Plots of log survival rate of the cells vs. concentration of the medicament were constructed, and the IC50 value of each sample was calculated according to graphing methods.

Lovo = assay: In vitro cytotoxicity, IC50 by MTT method, Lovo; format: cell-based
Method: as §1, §2, §3, §4, §5

Hela = assay: In vitro cytotoxicity, IC50 by MTT method, Hela; format: cell-based
Method: as §1, §2, §3, §4, §5

PLA-801 = assay: In vitro cytotoxicity, IC50 by MTT method, PLA-801; format: cell-based
Method: as §1, §2, §3, §4, §5

Bel-7402 = assay: In vitro cytotoxicity, IC50 by MTT method, Bel-7402; format: cell-based
Method: as §1, §2, §3, §4, §5

NIH3T3 = assay: In vitro cytotoxicity, IC50 by MTT method, NIH3T3; format: cell-based
Method: as §1, §2, §3, §4, §5

BGC-823 = assay: In vitro cytotoxicity, IC50 by MTT method, BGC-823; format: cell-based
Method: as §1, §2, §3, §4, §5

S180 sarcoma = details: S180 sarcoma; for Body weight of the animals, beginning, First time / Body weight of the animals, end, First time / Inhibition rate, First time / Weight of the tumor X ± SD, First time / Body weight of the animals, beginning, Second time / Body weight of the animals, end, Second time / Inhibition rate, Second time: ip × 10qd
Lewis lung cancer = details: Lewis lung cancer; for Body weight of the animals, end, First time / Body weight of the animals, end, Second time: ip × 10qd;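 on all read-outs here: mice implanted subcutaneously in the axilla with Lewis lung tumor cells, treated starting the following day, killed roughly three weeks after implantation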
Description: There was one group of 8 to 10 mice C57BL/6 and Kunming mice for the anti-tumor tests and two groups of mice for negative control.
(3) Sources of tumors: Lewis lung cancer cells and S180 sarcoma in mice, which were sub-cultured and maintained by Pharmacological Center of Shanghai Pharmaceutical Industrial Research Institute.
All samples were weighed and added a small amount of Tween-80 to facilitate dissolution during the experiment, and then 0.5% CMC-Na solution was gradually added to achieve the desired concentration. The volume for experiment was 0.5 ml/20 g mouse.
The medicaments were intraperitoneally administered once a day continuously for 10 days.
For the negative control group, a vehicle of the same volume was intraperitoneally administered once a day continuously for 10 days. For the positive control group, CTX was administered in the dosage of 30 mg/kg once a day continuously for 7 days.
In vivo anti-tumor subcutaneous vaccination in the axilla was employed. Wildly grown tumor source was taken under sterile conditions to form a cell suspension of about 1×10^7 ml by homogenization method. For a corresponding mouse host, the suspension was injected in the axilla in an amount of 0.2 ml/mouse. The next day, the medicaments were administered according to the design of the tests. About three weeks later, all the groups of animals were executed. The tumors were taken from the animals and weighed. The inhibition rate of tumors was calculated according to the following formula:
T: average tumor weight of treated group; C: average tumor weight of negative control group.

[1] = PLA-801 cell strain, read-out: IC50 PLA-801
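Wherever LD50 is given: acute toxicity in Kunming mice grouped by sex, one intraperitoneal dose at five graded levels in Tween-80 plus 0.5% CMC-Na, deaths monitored over two weeks.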

melting point: 194 to 195 °C
Compound: CCCc1nc(C(=O)OCC)cc2c1[nH]c1ccccc12 [Compound 13, ethyl 1-propyl-β-carboline-3-carboxylate]
pIC50 (HepG2; Homo sapiens, HepG2, MTT, read-out: IC50): 2.97
pIC50 (Lovo; Homo sapiens, Lovo, MTT, read-out: IC50): 3.13
pIC50 (Hela; Homo sapiens, Hela, MTT, read-out: IC50): < 2.52
pIC50 (PLA-801; PLA-801, MTT, read-out: IC50): 3.17
pIC50 (Bel-7402; Homo sapiens, Bel-7402, BeI7402, MTT, read-out: IC50): < 2.52
pIC50 (NIH3T3; Mus musculus, NIH3T3, MTT, read-out: IC50): 3.12
pIC50 (BGC-823; Homo sapiens, BGC-823, BGC823, MTT, read-out: IC50): < 2.52

melting point: 189 to 191 °C
Compound: CCCc1nc(C(=O)O)cc2c3ccccc3n(CC)c12 [Compound 73, 1-propyl-9-ethyl-β-carboline-3-carboxylic acid]
pIC50 (HepG2; Homo sapiens, HepG2 cell strain, read-out: IC50 HepG2): 3.27
pIC50 (Lovo; Homo sapiens, Lovo cell strain, read-out: IC50 Lovo): 3.59
pIC50 (Hela; Homo sapiens, Hela cell strain, read-out: IC50 Hela): 3.38
pIC50 (PLA-801; [1]): 3.15
pIC50 (Bel-7402; Homo sapiens, Bel-7402, Bel7402 cell strain, read-out: IC50 Bel7402): 3.24
pIC50 (NIH3T3; Mus musculus, NIH3T3 cell strain, read-out: IC50 NIH3T3): 3.41
pIC50 (BGC-823; Homo sapiens, BGC-823, BGC823 cell strain, read-out: IC50 BGC823): 3.41

Compound: 2,9-dibenzyl-3-ethoxycarbonyl-β-carbolinium bromate [Compound 86]
Body weight of the animals, beginning, First time (S180 sarcoma; Dosage 10 (mg/ml)): 19.3 g
Body weight of the animals, end, First time (S180 sarcoma; Dosage 10 (mg/ml)): 24.5 g
Inhibition rate, First time (S180 sarcoma; Dosage 10 (mg/ml)): 31.09%
Weight of the tumor X ± SD, First time (S180 sarcoma; Dosage 10 (mg/ml)): 1.84 ± 0.16 g
Body weight of the animals, beginning, Second time (S180 sarcoma; Dosage 10 (mg/ml)): 18.7 g
Body weight of the animals, end, Second time (S180 sarcoma; Dosage 10 (mg/ml)): 24.9 g
Inhibition rate, Second time (S180 sarcoma; Dosage 10 (mg/ml)): 28.89%
Weight of the tumor X ± SD, Second time (S180 sarcoma; Dosage 10, ip × 10qd): 1.92 ± 0.20 g
Body weight of the animals, beginning, First time (S180 sarcoma; Dosage 20 (mg/ml)): 19.0 g
Body weight of the animals, end, First time (S180 sarcoma; Dosage 20 (mg/ml)): 23.7 g
Inhibition rate, First time (S180 sarcoma; Dosage 20 (mg/ml)): 38.95%
Weight of the tumor X ± SD, First time (S180 sarcoma; Dosage 20 (mg/ml)): 1.63 ± 0.26 g
Body weight of the animals, beginning, Second time (S180 sarcoma; Dosage 20 (mg/ml)): 18.9 g
Body weight of the animals, end, Second time (S180 sarcoma; Dosage 20 (mg/ml)): 24.4 g
Inhibition rate, Second time (S180 sarcoma; Dosage 20 (mg/ml)): 41.11%
Weight of the tumor X ± SD, Second time (S180 sarcoma; Dosage 20, ip × 10qd): 1.59 ± 0.17 g
Inhibition rate (%) S180 sarcomata (S180 sarcoma; comparison table 43, in vivo): 41.11%
pIC50 (HepG2; HepG2 cell strain, read-out: IC50 HepG2): 4.40
LD50 (Kunming mice; 50% male 50% female mice, single i.p.): 65.7 mg/kg
LD50 (Kunming mice; mouse, in vivo, ip): 58.2 to 74.1 mg/kg
LD50 (Kunming mice; summary Table 34, present tests, mice i.p.): 65.7
pIC50 (Lovo; Lovo cell strain, read-out: IC50 Lovo): 4.70
pIC50 (Hela; Hela cell strain, read-out: IC50 Hela): 4.52
pIC50 (PLA-801; [1]): 5.00
pIC50 (Bel-7402; Bel7402 cell strain, read-out: IC50 Bel7402): 4.30
pIC50 (NIH3T3; NIH3T3 cell strain, read-out: IC50 NIH3T3): 4.70
pIC50 (BGC-823; BGC823 cell strain, read-out: IC50 BGC823): 4.40
Body weight of the animals, end, First time (Lewis lung cancer; Dosage 10 (mg/ml)): 24.5 g
Body weight of the animals, end, Second time (Lewis lung cancer; Dosage 10 (mg/ml)): 25.1 g
Body weight of the animals, beginning, First time (Lewis lung cancer; Dosage 10, ip × 10qd): 20.2 g
Inhibition rate, First time (Lewis lung cancer; Dosage 10, ip × 10qd): 34.98%
Weight of the tumor X ± SD, First time (Lewis lung cancer; Dosage 10, ip × 10qd): 1.58 ± 0.11 g
Body weight of the animals, beginning, Second time (Lewis lung cancer; Dosage 10, ip × 10qd): 19.1 g
Inhibition rate, Second time (Lewis lung cancer; Dosage 10, ip × 10qd): 37.20%
Weight of the tumor X ± SD, Second time (Lewis lung cancer; Dosage 10, ip × 10qd): 1.84 ± 0.17 g
Body weight of the animals, end, First time (Lewis lung cancer; Dosage 20 (mg/ml)): 25.2 g
Body weight of the animals, end, Second time (Lewis lung cancer; Dosage 20 (mg/ml)): 23.9 g
Body weight of the animals, beginning, First time (Lewis lung cancer; Dosage 20, ip × 10qd): 20.0 g
Inhibition rate, First time (Lewis lung cancer; Dosage 20, ip × 10qd): 41.56%
Weight of the tumor X ± SD, First time (Lewis lung cancer; Dosage 20, ip × 10qd): 1.42 ± 0.11 g
Body weight of the animals, beginning, Second time (Lewis lung cancer; Dosage 20, ip × 10qd): 18.7 g
Inhibition rate, Second time (Lewis lung cancer; Dosage 20, ip × 10qd): 45.05%
Weight of the tumor X ± SD, Second time (Lewis lung cancer; Dosage 20, ip × 10qd): 1.61 ± 0.17 g
Inhibition rate (%) Lewis cancer (Lewis lung cancer; comparison table 43, in vivo): 41.56%
